Source: patent US20070249620A1, “Urea Derivative” (priority 2004, published 2007)

Columns and labels:
mouse DGAT1 = molecular target: T1, mouse DGAT1 (Mus musculus, UniProt Q9Z2A7); experiment: DGAT1 inhibitory effect test (microsome fraction, [14C]-oleoyl-CoA, triglyceride radioactivity by TLC); assay type: biochemical; settings: 0.5 h; concentration of the test compound 0.1 μg/ml; mouse DGAT1 microsomes, 23° C., 30 minutes; read-out: Inhibitory ratio
T1 construct: made in house; host or cells: insect cells (High Five, Sf9, Sf21, etc.), baculovirus expression system (Invitrogen)
T1 sequence (Q9Z2A7 1-498): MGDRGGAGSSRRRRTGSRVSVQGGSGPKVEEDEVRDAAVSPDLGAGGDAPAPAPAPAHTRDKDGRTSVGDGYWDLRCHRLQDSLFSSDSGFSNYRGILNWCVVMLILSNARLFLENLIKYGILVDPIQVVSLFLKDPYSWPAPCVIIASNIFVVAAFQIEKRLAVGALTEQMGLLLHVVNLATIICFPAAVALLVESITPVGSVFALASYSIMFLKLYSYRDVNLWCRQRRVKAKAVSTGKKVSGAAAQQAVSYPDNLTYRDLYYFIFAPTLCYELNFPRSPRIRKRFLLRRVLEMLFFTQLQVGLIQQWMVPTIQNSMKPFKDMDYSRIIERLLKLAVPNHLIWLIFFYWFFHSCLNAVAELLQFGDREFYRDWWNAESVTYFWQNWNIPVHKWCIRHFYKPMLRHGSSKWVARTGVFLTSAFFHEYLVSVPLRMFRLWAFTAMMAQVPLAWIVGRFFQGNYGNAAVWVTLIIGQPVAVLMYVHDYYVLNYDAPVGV
Method in brief: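 Baculovirus-expressed mouse DGAT1 insect-cell microsomes (10 μg) were incubated 30 min at 23 °C, pH 8.0, with 0.5 mM 1,2-dioleoyl-sn-glycerol, 30 μM [14C]-oleoyl-CoA and 0.5% Triton X-100. [14C]-triglyceride was quantified after heptane extraction and TLC. Percent inhibition was taken against vehicle control, with 0-min background subtracted.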

SMILES | inhibition at 0.1 µg/mL (mouse DGAT1) | melting point
COc1ccc(C)cc1NC(=O)Nc1ccc(N2CCN(C(=O)Nc3c(C)cc(Cl)cc3C)CC2)cc1 [Example 174, 4-{4-[3-(2-methoxy-5-methyl-phenyl)-ureido]-phenyl}-piperazine-1-carboxylic acid (4-chloro-2,6-dimethyl-phenyl)-amide] | ≥ 50% | 238 to 240 °C
COc1ccc(C)cc1NC(=O)Nc1ccc(N2CCN(C(=O)Nc3c(C)cccc3OC)CC2)nc1 [Example 186, 4-{5-[3-(2-methoxy-5-methyl-phenyl)-ureido]-pyridin-2-yl}-piperazine-1-carboxylic acid (2-methoxy-6-methyl-phenyl)-amide] | ≥ 50% | 198 to 200 °C
COc1ccccc1NC(=O)Nc1ccc2c(c1)CCN(C(=O)Nc1ccc(OCCO)cc1Cl)C2 [Example 265, 6-[3-(2-methoxy-phenyl)-ureido]-3,4-dihydro-1 H-isoquinoline-2-carboxylic acid [2-chloro-4-(2-hydroxy-ethoxy)-phenyl]-amide] | ≥ 50% | 130 to 135 °C
COc1ccccc1NC(=O)Nc1ccc(C2CCN(C(=O)Nc3ccc(OCC(O)CO)cc3Cl)CC2)cc1 (stereo not drawn) [Example 288, 4-{4-[3-(2-methoxy-phenyl)-ureido]-phenyl}-piperidine-1-carboxylic acid [2-chloro-4-(2,3-dihydroxy-propoxy)-phenyl]-amide] | ≥ 50% | 158 to 161 °C
COc1ccc(F)cc1NC(=O)Nc1ccc(N2CCN(C(=O)Nc3c(Cl)cccc3Cl)CC2)nc1 [Example 151, 4-{5-[3-(5-fluoro-2-methoxy-phenyl)-ureido]-pyridin-2-yl}-piperazine-1-carboxylic acid (2,6-dichloro-phenyl)-amide] | ≥ 50% | 228 °C
COc1ccc(C)cc1NC(=O)Nc1ccc(N2CCCN(C(=O)Nc3c(C)cccc3Cl)CC2)cc1 [Example 200, 4-{4-[3-(2-methoxy-5-methyl-phenyl)-ureido]-phenyl}-perhydro-1,4-diazepine-1-carboxylic acid (2-chloro-6-methyl-phenyl)-amide] | ≥ 50% | > 240 °C (dec.)
COc1ccc(C)cc1NC(=O)Nc1ccc(N2CCN(C(=O)Nc3c(C)cccc3[N+](=O)[O-])CC2)cc1 [Example 60, 4-{4-[3-(2-methoxy-5-methyl-phenyl)-ureido]-phenyl}-piperazine-1-carboxylic acid (2-methyl-6-nitro-phenyl)-amide] | ≥ 50% | 213 to 215 °C
COc1ccc(C)cc1NC(=O)Nc1ccc(C2CCN(C(=O)Nc3ccc(OCCO)cc3Cl)CC2)cc1 [Example 257, 4-{4-[3-(2-methoxy-5-methyl-phenyl)-ureido]-phenyl}-piperidine-1-carboxylic acid [2-chloro-4-(2-hydroxy-ethoxy)-phenyl]-amide] | ≥ 50% | 134 to 137 °C
CCOc1ccc(Cl)cc1NC(=O)Nc1ccc(N2CCN(C(=O)Nc3c(C)cccc3C)CC2)cc1 [Example 104, 4-{4-[3-(5-chloro-2-ethoxy-phenyl)-ureido]-phenyl}-piperazine-1-carboxylic acid (2,6-dimethyl-phenyl)-amide] | ≥ 50% | 144 to 146 °C
COc1ccc(C)cc1NC(=O)Nc1ccc(N2CCN(C(=O)Nc3ccc(Br)cc3C#N)CC2)cc1 [Example 171, 4-{4-[3-(2-methoxy-5-methyl-phenyl)-ureido]-phenyl}-piperazine-1-carboxylic acid (4-bromo-2-cyano-phenyl)-amide] | ≥ 50% | 149 to 151 °C
O=C(Nc1ccc(N2CCN(C(=O)C(O)c3ccccc3Cl)CC2)nc1)Nc1ccccc1F (stereo not drawn) [Example 377, 1-(6-{4-[2-(2-chloro-phenyl)-2-hydroxy-acetyl]-piperazin-1-yl}-pyridin-3-yl)-3-(2-fluoro-phenyl)-urea] | ≥ 50% | 127 to 128 °C
CCOc1ccc(C)cc1NC(=O)Nc1ccc(N2CCN(C(=O)Nc3ncccc3C)CC2)nc1 [Example 307, 4-{5-[3-(2-ethoxy-5-methyl-phenyl)-ureido]-pyridin-2-yl}-piperazine-1-carboxylic acid (3-methyl-pyridin-2-yl)-amide] | ≥ 50% | 198 to 200 °C
COc1ccc(F)cc1NC(=O)Nc1ccc(N2CCN(C(=O)Nc3c(C)cccc3Cl)CC2)cc1 [Example 98, 4-{4-[3-(5-fluoro-2-methoxy-phenyl)-ureido]-phenyl}-piperazine-1-carboxylic acid (2-chloro-6-methyl-phenyl)-amide] | ≥ 50% | 240 to 241 °C
CCOc1ccccc1NC(=O)Nc1ccc(N2CCN(C(=O)Nc3ccc(C)cc3Cl)CC2)nc1 [Example 146, 4-{5-[3-(2-ethoxy-phenyl)-ureido]-pyridin-2-yl}-piperazine-1-carboxylic acid (2-chloro-4-methyl-phenyl)-amide] | ≥ 50% | 136 to 137 °C

Now from value to molecule:

inhibition at 0.1 µg/mL (mouse DGAT1) | melting point | SMILES
≥ 50% | 190 to 192 °C | CCOc1ccc(C)cc1NC(=O)Nc1ccc(N2CCN(C(=O)Nc3ccccc3C)CC2)cc1 [Example 84, 4-{4-[3-(2-ethoxy-5-methyl-phenyl)-ureido]-phenyl}-piperazine-1-carboxylic acid o-tolylamide]
≥ 50% | 187 to 190 °C | COc1ccc(C)cc1NC(=O)Nc1ccc(N2CCN(C(=O)Nc3ccc(OCC(O)CO)cc3C(F)(F)F)CC2)cc1 (stereo not drawn) [Example 275, 4-{4-[3-(2-methoxy-5-methyl-phenyl)-ureido]-phenyl}-piperazine-1-carboxylic acid [4-(2,3-dihydroxy-propoxy)-2-trifluoromethyl-phenyl]-amide]
≥ 50% | 110 to 112 °C | CCOc1ccccc1NC(=O)Nc1ccc(N2CCN(C(=O)Nc3ncccc3C)CC2)cc1 [Example 304, 4-{4-[3-(2-ethoxy-phenyl)-ureido]-phenyl}-piperazine-1-carboxylic acid (3-methyl-pyridin-2-yl)-amide]
≥ 50% | 177 to 179 °C | CCOc1ccccc1NC(=O)Nc1ccc(N2CCN(C(=O)Nc3c(F)cccc3C(F)(F)F)CC2)nc1 [Example 143, 4-{5-[3-(2-ethoxy-phenyl)-ureido]-pyridin-2-yl}-piperazine-1-carboxylic acid (2-fluoro-6-trifluoromethyl-phenyl)-amide]
≥ 50% | 108 to 110 °C | CCOc1cccc(NC(=O)Nc2ccc(N3CCN(C(=O)Nc4ccc(OCCO)cc4C(F)(F)F)CC3)cc2)c1 [Example 215, 4-{4-[3-(3-ethoxy-phenyl)-ureido]-phenyl}-piperazine-1-carboxylic acid [4-(2-hydroxy-ethoxy)-2-trifluoromethyl-phenyl]-amide]
≥ 50% | 135 to 137 °C | CCOc1ccc(Cl)cc1NC(=O)Nc1ccc(N2CCN(C(=O)Nc3c(Cl)cccc3Cl)CC2)cc1 [Example 135, 4-{4-[3-(5-chloro-2-ethoxy-phenyl)-ureido]-phenyl}-piperazine-1-carboxylic acid (2,6-dichloro-phenyl)-amide]
≥ 50% | 140 to 143 °C | CCOc1cccc(NC(=O)Nc2ccc(N3CCN(C(=O)Nc4cc(OCCO)ccc4Cl)CC3)nc2)c1 [Example 236, 4-{5-[3-(3-ethoxy-phenyl)-ureido]-pyridin-2-yl}-piperazine-1-carboxylic acid [2-chloro-5-(2-hydroxy-ethoxy)-phenyl]-amide]
≥ 50% | 152 to 154 °C | COc1ccc(C)cc1NC(=O)Nc1ccc(N2CCN(C(=O)Nc3ccc(OCCO)cc3Cl)CC2)cc1 [Example 248, 4-{4-[3-(2-methoxy-5-methyl-phenyl)-ureido]-phenyl}-piperazine-1-carboxylic acid [2-chloro-4-(2-hydroxy-ethoxy)-phenyl]-amide]
≥ 50% | 162 to 164 °C | O=C(Nc1ccc2c(c1)CCN(C(=O)Nc1ccc(OCCO)cc1C(F)(F)F)C2)Nc1ccccc1F [Example 227, 6-[3-(2-fluoro-phenyl)-ureido]-3,4-dihydro-1H-isoquinoline-2-carboxylic acid [4-(2-hydroxy-ethoxy)-2-trifluoromethyl-phenyl]-amide]
≥ 50% | 110 to 112 °C | O=C(Nc1ccc(C2=CCN(C(=O)Nc3ccc(OCCO)cc3C(F)(F)F)CC2)cc1)Nc1ccccc1F [Example 229, 4-{4-[3-(2-fluoro-phenyl)-ureido]-phenyl}-3,6-dihydro-2H-pyridine-1-carboxylic acid [4-(2-hydroxy-ethoxy)-2-trifluoromethyl-phenyl]-amide]
